# Measured values as given in US20250073249A1, “STEROID COMPOUND, AND PREPARATION METHOD THEREFOR AND USE THEREOF” (SHANGHAI INSTITUTE OF MATERIA MEDICA, CHINESE ACADEMY OF …, priority 2022, published 2025).
# Assays:
# Assay type in all cases: cell-based
# AR = molecular target: T1, AR (Homo sapiens, UniProt P10275, T878A); test: In vitro AR degradation activity test in LNCaP cells (ELISA, OD450); conditions: for DC50: LNCaP cells, 24 hours; for AR degradation activity, improvement compared to Galeterone: ratio to Galeterone DC50
# T1 construct: endogenous in cells; host or cells: LNCaP
# T1 sequence (P10275 1-920 T878A): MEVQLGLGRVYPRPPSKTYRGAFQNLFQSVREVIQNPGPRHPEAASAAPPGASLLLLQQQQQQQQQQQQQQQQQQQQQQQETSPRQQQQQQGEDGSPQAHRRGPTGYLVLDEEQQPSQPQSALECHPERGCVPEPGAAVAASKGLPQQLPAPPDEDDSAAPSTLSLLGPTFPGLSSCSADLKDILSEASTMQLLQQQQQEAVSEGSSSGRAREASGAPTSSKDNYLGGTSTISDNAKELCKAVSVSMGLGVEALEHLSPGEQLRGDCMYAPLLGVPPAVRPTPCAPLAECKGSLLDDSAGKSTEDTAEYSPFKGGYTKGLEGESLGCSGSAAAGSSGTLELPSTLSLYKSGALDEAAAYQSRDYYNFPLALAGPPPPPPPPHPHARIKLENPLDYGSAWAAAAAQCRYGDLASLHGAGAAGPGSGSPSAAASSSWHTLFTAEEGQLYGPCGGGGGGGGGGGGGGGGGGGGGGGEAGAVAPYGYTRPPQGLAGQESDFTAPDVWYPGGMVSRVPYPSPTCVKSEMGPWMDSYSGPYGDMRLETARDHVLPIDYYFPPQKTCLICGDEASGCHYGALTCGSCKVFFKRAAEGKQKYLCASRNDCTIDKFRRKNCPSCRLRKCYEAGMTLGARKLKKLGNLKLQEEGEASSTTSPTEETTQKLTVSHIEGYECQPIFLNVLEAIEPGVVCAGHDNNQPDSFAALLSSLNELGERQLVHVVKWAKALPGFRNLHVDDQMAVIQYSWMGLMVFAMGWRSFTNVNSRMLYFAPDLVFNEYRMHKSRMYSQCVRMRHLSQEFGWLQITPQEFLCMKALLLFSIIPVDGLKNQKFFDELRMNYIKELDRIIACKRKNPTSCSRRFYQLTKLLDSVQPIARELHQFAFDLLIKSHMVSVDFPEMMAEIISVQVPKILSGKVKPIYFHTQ
# How it was run: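 AR in protein-normalized lysates was quantified by sandwich ELISA with HRP detection at OD450. Degradation rate (%) was computed from OD450 max/min controls, and IC50 was derived from it.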
# TMPRSS2 = TMPRSS2 mRNA expression in A549 cells (qPCR)
# ACE2 = ACE2 mRNA expression in A549 cells (qPCR)
# [1] = 10 μM, 1 nM DHT, 48 h, Blank = 1
Compound,DC50 (AR),"AR degradation activity, improvement compared to Galeterone (AR)","Expression of TMPRSS2 protein, in words (TMPRSS2)",TMPRSS2 mRNA level (TMPRSS2; [1]),"Expression of ACE2 protein, in words (ACE2)",ACE2 mRNA level (ACE2; [1])
"Cc1cn(C2=CCC3C4CC=C5C[C@@H](NC(=O)c6ccc(F)cc6)CC[C@]5(C)C4CC[C@]23C)cn1 (stereo partly drawn) [Compound 33, N-((3S,10R,13S)-17-(4-methyl-1H-imidazol-1-yl)-10,13-dimethyl-2,3,4,7,8,9,10,11,12,13,14,15-dodecahydro-1H-cyclopenta[a]phenanthren-3-yl)-4-fluorobenzamide]",1.28 µM,8.1 times,–,–,–,–
"Cc1cn(C2=CCC3C4CC=C5C[C@@H](NC(=O)c6ccc(S(C)(=O)=O)cc6)CC[C@]5(C)C4CC[C@]23C)cn1 (stereo partly drawn) [Compound 35, N-((3S,10R,13S)-17-(4-methyl-1H-imidazol-1-yl)-10,13-dimethyl-2,3,4,7,8,9,10,11,12,13,14,15-dodecahydro-1H-cyclopenta[a]phenanthren-3-yl)-4-(methylsulfonyl)benzamide]",1.56 µM,6.7 times,significantly downregulate,0.394,significantly downregulate,0.102
"Cc1cn(C2=CCC3C4CC=C5C[C@@H](NC(=O)c6ccc(F)cc6F)CC[C@]5(C)C4CC[C@]23C)cn1 (stereo partly drawn) [Compound 37, N-((3S,10R,13S)-17-(4-methyl-1H-imidazol-1-yl)-10,13-dimethyl-2,3,4,7,8,9,10,11,12,13,14,15-dodecahydro-1H-cyclopenta[a]phenanthren-3-yl)-2,4-difluorobenzamide]",1.68 µM,6.2 times,–,–,–,–
